Test results: ChEMBL document CHEMBL4376845, “Design, Synthesis, and Biological Evaluation of MEK PROTACs” (J Med Chem, 2020)
The source made the active and inactive calls. No cut-off for these calls is given here.

Columns and labels:
A-375 [1] = assay: Antiproliferative activity against human A375 cells assessed as reduction in cell viability; format: functional, cell-based
[2] = target: T1, von Hippel-Lindau disease tumor suppressor/Dual specificity mitogen-activated protein kinase kinase 2/Dual specificity mitogen-activated protein kinase kinase 1 (Homo sapiens) (UniProt P36507+Q02750+P40337); assay: Protac activity at VHL/MEK in human A375 cells assessed as MEK1 degradation at 10 uM incubated for 16 hrs in presence of poly(I:C) stimulation by Surefire assay relative to control; format: cell-based
[3] = target: T1, von Hippel-Lindau disease tumor suppressor/Dual specificity mitogen-activated protein kinase kinase 2/Dual specificity mitogen-activated protein kinase kinase 1 (Homo sapiens); assay: Protac activity at VHL/MEK in human A375 cells assessed as MEK1 degradation at 1 uM incubated for 16 hrs in presence of poly(I:C) stimulation by Surefire assay relative to control; format: cell-based
[4] = target: T1, von Hippel-Lindau disease tumor suppressor/Dual specificity mitogen-activated protein kinase kinase 2/Dual specificity mitogen-activated protein kinase kinase 1 (Homo sapiens); assay: Protac activity at VHL/MEK in human A375 cells assessed as […] at <10 uM incubated for 12 hrs followed by poly(I:C) treatment and measured after 4 hrs by Surefire assay; format: cell-based
[5] = target: T1, von Hippel-Lindau disease tumor suppressor/Dual specificity mitogen-activated protein kinase kinase 2/Dual specificity mitogen-activated protein kinase kinase 1 (Homo sapiens); assay: Protac activity at VHL/MEK in human A375 cells assessed as MEK2 degradation at 10 uM incubated for 16 hrs in presence of poly(I:C) stimulation by immunoblotting analysis; format: cell-based
[6] = target: T1, von Hippel-Lindau disease tumor suppressor/Dual specificity mitogen-activated protein kinase kinase 2/Dual specificity mitogen-activated protein kinase kinase 1 (Homo sapiens); assay: Protac activity at VHL/MEK in human A375 cells assessed as MEK1 degradation at 10 uM incubated for 2 hrs in presence of ploy(I:C) stimulation by Surefire assay; format: cell-based
[7] = target: T1, von Hippel-Lindau disease tumor suppressor/Dual specificity mitogen-activated protein kinase kinase 2/Dual specificity mitogen-activated protein kinase kinase 1 (Homo sapiens); assay: Protac activity at VHL/MEK in human A375 cells assessed as reduction in ERK1/2 phosphorylation at 10 uM incubated for 2 hrs in presence of poly(I:C) stimulation by Surefire assay; format: cell-based
[8] = target: T1, von Hippel-Lindau disease tumor suppressor/Dual specificity mitogen-activated protein kinase kinase 2/Dual specificity mitogen-activated protein kinase kinase 1 (Homo sapiens); assay: Protac activity at VHL/MEK in human A375 cells assessed as reduction in ERK1/2 phosphorylation at 10 uM incubated for >=8 hrs in presence of poly(I:C) stimulation by Surefire assay relative to control; format: cell-based
[9] = target: T1, von Hippel-Lindau disease tumor suppressor/Dual specificity mitogen-activated protein kinase kinase 2/Dual specificity mitogen-activated protein kinase kinase 1 (Homo sapiens); assay: Protac activity at VHL/MEK in human A375 cells assessed as MEK1 degradation at 1 to 10 uM incubated for 12 hrs followed by poly(I:C) treatment and measured after 4 hrs by Surefire assay; format: cell-based
[10] = target: T1, von Hippel-Lindau disease tumor suppressor/Dual specificity mitogen-activated protein kinase kinase 2/Dual specificity mitogen-activated protein kinase kinase 1 (Homo sapiens); assay: Protac activity at VHL/MEK in human A375 cells assessed as reduction in IL6 secretion at 10 uM incubated for 12 hrs followed by poly(I:C) treatment and measured after 4 hrs by AlphaLISA assay; format: cell-based
A-375 [11] = assay: Antiproliferative activity against human A375 cells assessed as growth inhibition at 10 uM measured up to 72 hrs by IncuCyte zoom live cell analysis; format: functional, cell-based
[12] = target: T1, von Hippel-Lindau disease tumor suppressor/Dual specificity mitogen-activated protein kinase kinase 2/Dual specificity mitogen-activated protein kinase kinase 1 (Homo sapiens); assay: Protac activity at VHL/MEK in human A375 cells assessed as maximal MEK1 degradation at 10 uM incubated for 8 hrs in presence of ploy(I:C) stimulation by Surefire assay; format: cell-based
[13] = target: T2, Dual specificity mitogen-activated protein kinase kinase 1 (Homo sapiens, UniProt Q02750); assay: Inhibition of MEK1 (unknown origin) incubated for 60 mins in presence of ATP by Kinase Glo luminescence assay
[14] = target: T1, von Hippel-Lindau disease tumor suppressor/Dual specificity mitogen-activated protein kinase kinase 2/Dual specificity mitogen-activated protein kinase kinase 1 (Homo sapiens); assay: Protac activity at VHL/MEK in human A375 cells assessed as MEK1 degradation at 10 uM incubated for 16 hrs in presence of poly(I:C) stimulation by immunoblotting analysis; format: cell-based
[15] = target: T1, von Hippel-Lindau disease tumor suppressor/Dual specificity mitogen-activated protein kinase kinase 2/Dual specificity mitogen-activated protein kinase kinase 1 (Homo sapiens); assay: Protac activity at VHL/MEK in human A375 cells assessed as MEK1 degradation at 10 uM incubated up to 8 hrs in presence of poly(I:C) stimulation by Surefire assay; format: cell-based
[16] = target: T2, Dual specificity mitogen-activated protein kinase kinase 1; assay: Inhibition of MEK1 in human A375 cells assessed as reduction in ERK1/2 phosphorylation at 10 uM incubated for 1 to 16 hrs in presence of poly(I:C) stimulation by Surefire assay; format: cell-based
A-375 [17] = assay: Reduction in MEK1 protein level in human A375 cells at 100 pM to 10 uM incubated for 12 hrs followed by poly(I:C) treatment and measured after 4 hrs by Surefire assay relative to untreated control; format: functional
[18] = target: T2, Dual specificity mitogen-activated protein kinase kinase 1; assay: Inhibition of MEK1 in human A375 cells assessed as reduction in IL6 secretion at 1 to 10 uM incubated for 12 hrs followed by poly(I:C) treatment and measured after 4 hrs by AlphaLISA assay; format: cell-based
[19] = Lipophilicity, log D of compound; format: physicochemical; conditions: octanol/water
[20] = target: T2, Dual specificity mitogen-activated protein kinase kinase 1; assay: Inhibition of MEK1 in human A375 cells assessed as inhibition of ERK1/2 phosphorylation at 1 to 10 uM incubated for 12 hrs followed by poly(I:C) treatment and measured after 4 hrs by Surefire assay; format: cell-based
A-375 [21] = assay: Reduction in MEK1 protein expression in human A375 cells at 10 uM incubated for 16 hrs in presence of poly(I:C) stimulation by Surefire assay; format: functional, cell-based
[22] = Aqueous solubility of the compound in buffer at pH 7.4; format: physicochemical

T1 sequence (P36507 whole entry, looked up): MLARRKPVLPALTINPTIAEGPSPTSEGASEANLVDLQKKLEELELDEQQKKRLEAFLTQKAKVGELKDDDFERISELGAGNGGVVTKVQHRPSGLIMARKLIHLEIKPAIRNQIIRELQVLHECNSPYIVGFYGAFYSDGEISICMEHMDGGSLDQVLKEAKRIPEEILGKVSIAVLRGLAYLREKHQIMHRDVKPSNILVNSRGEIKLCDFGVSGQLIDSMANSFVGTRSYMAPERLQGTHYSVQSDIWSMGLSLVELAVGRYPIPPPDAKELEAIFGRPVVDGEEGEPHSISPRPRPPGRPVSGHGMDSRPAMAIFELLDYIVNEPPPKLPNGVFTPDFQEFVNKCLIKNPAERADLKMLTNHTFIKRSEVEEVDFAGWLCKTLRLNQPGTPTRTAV
T1 sequence (P40337 whole entry, looked up): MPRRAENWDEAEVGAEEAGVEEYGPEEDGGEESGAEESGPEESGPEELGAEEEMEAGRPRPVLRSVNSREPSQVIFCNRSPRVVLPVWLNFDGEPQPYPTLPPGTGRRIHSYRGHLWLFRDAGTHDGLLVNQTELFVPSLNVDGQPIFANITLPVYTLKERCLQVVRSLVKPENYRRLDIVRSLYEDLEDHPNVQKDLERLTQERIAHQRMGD
T1 sequence (Q02750 whole entry, looked up): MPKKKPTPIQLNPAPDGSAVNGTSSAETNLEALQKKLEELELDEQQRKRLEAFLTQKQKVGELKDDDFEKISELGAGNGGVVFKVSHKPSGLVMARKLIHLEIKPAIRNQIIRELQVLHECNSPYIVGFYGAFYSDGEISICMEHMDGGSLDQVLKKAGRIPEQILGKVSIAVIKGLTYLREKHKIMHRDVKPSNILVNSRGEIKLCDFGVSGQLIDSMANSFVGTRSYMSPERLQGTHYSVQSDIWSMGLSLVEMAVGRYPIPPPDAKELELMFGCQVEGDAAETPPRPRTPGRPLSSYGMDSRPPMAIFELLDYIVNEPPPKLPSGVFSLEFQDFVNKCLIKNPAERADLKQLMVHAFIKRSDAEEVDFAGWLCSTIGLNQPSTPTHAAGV
T2 sequence (Q02750 whole entry): as the sequence (Q02750 whole entry, looked up) above

Structure (SMILES) | IC50 (A-375 [1]) | Activity [2] | Activity [3] | Activity [4] | Activity [5] | Activity [6] | Activity [7] | inhibition [8] | Activity [9] | Activity [10] | growth inhibition (GI) (A-375 [11]) | Activity [12] | IC50 [13] | Activity [14] | logD [19] | also measured
O=C(c1ccc(F)c(F)c1Nc1ccc(I)cc1F)N1CC(O)([C@@H]2CCCCN2)C1 [COBIMETINIB] | 5 nM |  |  |  |  |  |  |  |  |  |  |  |  |  |  | 
Cc1ncsc1-c1ccc([C@H](C)NC(=O)[C@@H]2C[C@@H](O)CN2C(=O)[C@@H](NC(=O)COCCOCCOCCNC(=O)CCc2ccc(S(=O)(=O)Nc3cc(C)c(=O)n(C)c3Nc3ccc(I)cc3F)cc2)C(C)(C)C)cc1 |  | 94% | 90% | Active | Active | Active | Active | 100% | Active | Active | Active | Active | 100 nM | Active |  | 
Cc1cc(NS(=O)(=O)c2ccccc2)c(Nc2ccc(I)cc2F)n(C)c1=O |  | 1% | -7% |  | inactive |  |  |  |  |  | Active |  | 398 nM | inactive | 3.9 | Activity [15]: inactive; inhibition [16]: Active; inhibition (INH) (A-375 [17]): 20%; inhibition [18]: Active; inhibition [20]: Active; inhibition (A-375 [21]): Active
Cc1ncsc1-c1ccc([C@H](C)NC(=O)[C@@H]2C[C@@H](O)CN2C(=O)[C@@H](NC(=O)COCCOCCOCCOCCNC(=O)CCc2ccc(S(=O)(=O)Nc3cc(C)c(=O)n(C)c3Nc3ccc(I)cc3F)cc2)C(C)(C)C)cc1 |  | 96% | 91% | Active | Active | Active | Active | 100% | Active | Active | Active | Active | 100 nM | Active | 4.3 | solubility [22]: < 1.5 µM
Cc1ncsc1-c1ccc([C@H](C)NC(=O)[C@@H]2C[C@@H](O)CN2C(=O)[C@@H](NC(=O)COCCOCCOCCNC(=O)COc2ccc(S(=O)(=O)Nc3cc(C)c(=O)n(C)c3Nc3ccc(I)cc3F)cc2)C(C)(C)C)cc1 |  | 95% | 72% | Active | Active | Active | Active | 100% | Active | Active | Active | Active | 158 nM | Active |  | 
CC(=O)Nc1cccc(-n2c(=O)n(C3CC3)c(=O)c3c(Nc4ccc(I)cc4F)n(C)c(=O)c(C)c32)c1 [TRAMETINIB] | 0.74 nM |  |  |  |  |  |  |  |  |  |  |  |  |  |  | 
